Test results as given in US10174068B2, “Methods of functionalization and reagents used in such methods using an aza-isatoic anhydride or a derivative thereof, biological molecules thus treated and kits” (BIOMERIEUX, priority 2012, dated 2019).

Assays:
ORN with 27 bases = assay: Functionalization of a 27-mer ORN, degree of functionalization (Df) by HPLC after nuclease P1/alkaline phosphatase hydrolysis
Experimental: A comparison of the reactivity of the aza-isatoic anhydride derivative 14 relative to the reference isatoic derivative, Biot-peg4-SS-IAMe as described in WO-A-2012/076794, with respect to a 27-base model ORN (seq: 5′-AAC-CGC-AGU-GAC-ACC-CUC-AUC-AUU-ACA-3′, Eurogentec, Liege Science Park, Belgium) is carried out. For this, a fixed amount of ORN is reacted with an isatoic anhydride derivative conjugated with a molecule of interest, at 65° C. and at room temperature. The reaction is monitored by HPLC at 260 nm as was described previously in patent application WO-A-2012/076794 in example 3. This analysis makes it possible to detect the disappearance of the peak corresponding to the initial ORN and the appearance of peaks corresponding to the acylated ORN. These products have a greater retention time, and an absorption spectrum corresponding both to that of the ORN, and to that of the functionalizing reagent.
For precise evaluation of the degree of functionalization (Df), the ORN population (labelled and unlabelled) is separated from the surplus marker by precipitation with acetone/lithium perchlorate. Then the ORNs thus obtained are submitted to hydrolysis with nuclease P1 (Aldrich, Saint Louis, USA) and with alkaline phosphatase (Aldrich, Saint Louis, USA) in order to hydrolyse the phosphate diester bonds of the ORN.
LC-MS analysis of this mixture then allows several populations to be characterized and identified: • unlabelled ribonucleosides; • labelled mono-nucleoside adducts, which differ very clearly by a longer retention time, and by a UV spectrum characteristic of the nucleic acids and of the functionalizing reagent; • dinucleotides acylated at 2′ which, because of the anthranilate group substituted with the group of interest at 2′, cannot be cleaved by the nuclease P1; • per-acylated 2′OH trinucleotides or tetranucleotides, which may form theoretically but which are statistically very little represented (as this would then require two or three consecutive acylations of 2′OH), are not investigated.
The degree of functionalization of the ORN (Df) is evaluated by measuring: • the area corresponding to the terminal mononucleoside adducts (functionalized at 2′ and at 3′) and the area corresponding to the acylated dinucleotides (functionalized internally on the 2′OH) • compared to the area of the peaks corresponding to the four ribonucleosides.
In a standard experiment, the equivalent of 8 nmol of an ORN with 27 bases (5′-AAC-CGC-AGU-GAC-ACC-CUC-AUC-AUU-ACA-3′, Eurogentec, Liege Science Park, Belgium) in solution in water is first dried in a centrifugal evaporator (RCT 60, Jouan, St Herblain, France) in a 2-mL plastic Eppendorf tube. The dry residue obtained is first dissolved in 40 μL of water, then 20 μl of a buffered solution is added (in the example, a 1M triethylammonium acetate buffer solution, pH 7, Aldrich, St Louis, USA ref: 09748-100 ml). Finally, 20 μl of a solution of an isatoic anhydride derivative at 120 mM in DMSO is incorporated in the preceding solution (either the reference molecule Biot-peg4-SS-IAMe as described in FR 1060102 or the aza-isatoic derivative Biot-peg4-SS-azaIAMe (14) in this example). The mixture is incubated for 60 minutes at room temperature or at 65° C. in a stove on a rack pre-equilibrated in temperature. To remove the salts and the surplus marker, the mixture is then purified by triple precipitation in 1.2 mL of an acetone/LiClO4 180 mM 75/25 mixture. […]

[1] = tested on: mixture of HIV RNA transcripts and genomic calf DNA; assay: Selective extraction of HIV RNA transcripts from a mixture with genomic DNA (functionalization/capture/cleavage/elution, Qubit quantification); conditions: tag at 1.5 mM; for Final DNA/RNA ratio: after elution step 4
Experimental: For this, two biological models of nucleic acids were selected, HIV transcripts for RNA and genomic calf DNA. In order to compare the efficacy of the aza-isatoic derivative 14, these tests were also carried out on the reference compound Biot-peg4-SS-IAMe at 65° C. and at room temperature.
The nucleic acids used in this example are as follows: • HIV transcripts WT 1500 bases, at 1.94 μg/μL. • gDNA calf thymus, SIGMA (Saint Louis, USA), ref. D4764-5UN, at 1.92 μg/μL.
The following reagents are put in three 0.2-ml plastic tubes (Table 2 below):
In each case, the final concentrations of TEAAc and of functionalizing reagent are 250 mM and 1.5 mM respectively.
The three tubes are incubated for 1 hour at room temperature or at 65° C. on a heated rack.
Purification of the nucleic acids for each test was carried out in 5 different tubes of equivalent volume, in order to meet the optimum conditions for this step (i.e. 1 mg of magnetic silica per 2 μg of nucleic acids). Thus, each test is distributed in five 1.5-mL Eppendorf tubes i.e. 5 times 2.1 μL (2 μg of AN). 900 μL of lysis buffer (Easy Mag buffer, ref. 280134, bioMerieux, Marcy l'Etoile, France) and 50 μL of magnetic silica particles (EasyMAG silica, ref. 280133, bioMerieux, Marcy l'Etoile, France) are added to each tube. The latter are immediately stirred by the vortex effect after adding the silica, and then incubated for 10 minutes at room temperature. After magnetization on a DYNAL magnet, the supernatants are removed by aspiration with a pipette. For the next washing steps, the tubes are always stirred by the vortex effect and magnetized, followed by removal of the supernatant. A first washing is carried out with 500 μL of washing buffer 1 (Easy Mag buffer, ref. 280130, bioMerieux, Marcy l'Etoile, France). Two washings are then carried out with 900 μL and then 500 μL of washing buffer 2 (Easy Mag buffer, ref. 280131, bioMerieux, Marcy l'Etoile, France). Finally, a last washing step is carried out with 500 μL of elution buffer 3 (Easy Mag buffer, ref. 280132, bioMerieux, Marcy l'Etoile, France) at room temperature. […] The latter are analysed with the Qubit® Fluorometer instrument, ref. Q32857, Invitrogen (Carlsbad, Calif., United States of America), and using the kits Quant-iT RNA Assay Kit 5-100 ng (ref. Q32855, Invitrogen, Carlsbad, Calif., United States of America), and Quant-iT dsDNA HS Assay Kit 0.2-100 ng (ref. Q32854, Invitrogen, Carlsbad, Calif., United States of America). These analysis kits allow an RNA/DNA ratio to be determined in a mixture.
To perform this capture on magnetic particles, it is necessary to store each of the tests divided into 5 tubes in the preceding purification step. […] This supernatant is analysed as before with the Qubit® Fluorometer. […]

ODN with 27 bases = assay: Functionalization of a 27-mer ODN (chemo-selectivity RNA versus DNA); conditions: room temperature, 1 hour, reagent 30 mM, DMSO/TEAAc 250 mM pH 7 25/75
Experimental: 8 nmol of ODN with 27 bases, Seq: 5′-AAC-CGC-AGT-GAC-ACC-CTC-ATC-ATT-ACA-3′ (Eurogentec, Liege Science Park, Belgium) or 8 nmol of an ORN with 27 bases, Seq: 5′-AAC-CGC-AGU-GAC-ACC-CUC-AUC-AUU-ACA-3′ (Eurogentec, Liege Science Park, Belgium) is reacted with the aza-isatoic anhydride derivative (14) at 30 mM in a mixture DMSO/buffer TEAAc (250 mM pH 7) 25/75, for 1 hour at room temperature. After precipitation with acetone and hydrolysis with nuclease P1 and alkaline phosphatase, the hydrolysed fragments are analysed by LC-MS, as described in example 3. An example of chromatograms for monitoring the reaction of the ODN or of the ORN with compound 14 is shown in FIG. 6, where traces A, B and C correspond respectively to the initial ORN, the ORN functionalized with compound 14 and precipitated, and the ORN functionalized with 14, precipitated and hydrolysed. Traces D, E and F represent the same results obtained with the ODN.

[2] = 65° C., 60 minutes, TEAAc pH 7, reagent 120 mM in DMSO diluted in the mixture
[3] = room temperature, 1 hour, TEAAc pH 7, reagent 30 mM

Row | Compound | uncorrected degree of functionalization (Df) of the ORN (ORN with 27 bases; [2]) [%] | uncorrected degree of functionalization (Df) of the ORN (ORN with 27 bases; [3]) [%] | S* (intermediate selectivity index) ([1]; functionalization at 65° C.) | Final DNA/RNA ratio ([1]; functionalization at 65° C.) | melting point [°C] | factor of increase of reactivity with respect to an oligoribonucleotide relative to the reference compound (ORN with 27 bases; 65° C.) | S* (intermediate selectivity index) ([1]; functionalization at Rt) | Final DNA/RNA ratio ([1]; functionalization at Rt) | uncorrected degree of functionalization of the ODN (ODN with 27 bases) [%]
1 | O=C(CCCCC1SCC2NC(=O)NC21)NCCOCCOCCOCCC(=O)NCCSSCCC(=O)Nc1cccc2[nH]c(=O)oc(=O)c12 (centres unmarked) [Biot-peg4-SS-IAMe, reference compound] | 7.5 | 1 | 6 | 14/86 |  |  |  |  | 
2 | Cn1c(=O)oc(=O)c2cc(CCC(=O)NCCSSCCNC(=O)CCCCC3SCC4NC(=O)NC43)cnc21 (centres unmarked) [Compound 12, 5-[(3AS,6AR)-2-OXO-HEXAHYDRO-1H-THIENO[3,4-D]IMIDAZOLIDIN-4-YL]-N-(2-{[2-(3-{1-METHYL-2,4-DIOXO-1H,2H,4H-PYRIDO[2,3-D][1,3]OXAZIN-6-YL}PROPANAMIDO)ETHYL]DISULPHANYL}ETHYL)PENTANAMIDE] |  |  |  |  | 125 |  |  |  | 
3 | Cn1c(=O)oc(=O)c2cc(CCC(=O)NCCSSCCNC(=O)CCOCCOCCOCCOCCNC(=O)CCCCC3SCC4NC(=O)NC43)cnc21 [Compound 14, 1-{5-[(3aS,6aR)-2-oxo-hexahydro-1H-thieno[3,4-d]imidazolidin-4-yl]pentanamido}-N-(2-{[2-(3-{1-methyl-2,4-dioxo-1H,2H,4H-pyrido[2,3-d][1,3]oxazin-6-yl}propanamido)ethyl]disulphanyl}ethyl)-3,6,9,12-tetraoxapentadecan-15-amide] | 13.5 | 7.8 |  |  |  | 1.8 | 30 | 4/96 | 0.5
